Experimental data published in US20120283282A1, “Photoproducts of Tryptophan, Their Synthesis and Uses Thereof” (priority 2009, published 2012).

System: hepatic glucose output
Assay: Glucose production assay in primary hepatocytes
Type: cell-based
Conditions: FIG. 5
Method: Primary hepatocytes were cultured in six-well plates (1.4 times 10^6 cells per well) in DMEM with 10% FBS or, in case of hormonal treatments, in serum-free DMEM. The medium was then replaced with 1 ml of glucose production buffer consisting of glucose-free DMEM (pH 7.4), without phenol red, supplemented with 20 mM sodium lactate and 2 mM sodium pyruvate. After a 3-h incubation, 0.5 ml of medium was collected and the glucose concentration measured with a colorimetric glucose assay kit (Sigma). The readings were then normalized to the total protein content determined from the whole-cell lysates. (Yoon J C, et al. Nature 413: 131-8, 2001.)

c1ccc2c(-c3nccc4c3[nH]c3ccccc34)c[nH]c2c1 (single isomer, unassigned) [Compound F7, 1-(1H-indol-3-yl)-9H-pyrido[3,4-b]indole]
hepatic glucose output: decreases hepatic glucose output
